In patent US20230242526A1 (Zentaur Therapeutics International Limited, priority 2020, published 2023):

Columns and labels:
[1] = Body weight in the HCC1806 xenograft study; type: in vivo, BALB/c nude mice; settings: 30 mg/kg P.O. BID; for Body weight D0 / Body weight D3 / Body weight D7 / Body weight D10 / Body weight D14 / Body weight D17 / Body weight D21: group mean; for Body weight D0: day 0; for Body weight D3: day 3; for Body weight D7: day 7; for Body weight D10: day 10; for Body weight D14: day 14; for Body weight D17: day 17; for Body weight D21: day 21
Protocol: (§1) When the average tumor volume reached 80-120 mm^3, 42 tumor-bearing mice were randomized into 7 groups (6 mice per group) according to tumor volume. The grouping day was defined as Day 0. Treatment was applied immediately after grouping animals on the same day.
(§2) The body weight of the testing animals were measured twice a week after grouping. Tumor volumes by the length and width of the tumor were measured by electric calipers and the tumor volume (V) was calculated as follows: V=(length×width^2)/2. The individual relative tumor volume (RTV) was calculated as follows: RTV=Vt/V0, where Vt was the volume on each day, and V0 was the volume at the beginning of the treatment.
(§3) Results were expressed as mean±S.E.M. Comparisons between two groups were made by corresponding test, p<0.05 were considered to be significant.

[2] = test system: HCC1806 s.c. xenografts; test: HCC1806 s.c. breast cancer xenograft efficacy (tumor volume, relative tumor volume, tumor weight, TGI); type: in vivo, BALB/c nude mice; settings: 30 mg/kg P.O. BID; for Tumor Growth Inhibition D3 / Tumor Growth Inhibition D7 / Tumor Growth Inhibition D10 / Tumor Growth Inhibition D14 / Tumor Growth Inhibition D17 / Tumor Growth Inhibition D21: vs control vehicle; for Tumor Growth Inhibition D3 / Tumor volume D3: day 3; for Tumor Growth Inhibition D7 / Tumor volume D7: day 7; for Tumor Growth Inhibition D10 / Tumor volume D10: day 10; for Tumor Growth Inhibition D14 / Tumor volume D14: day 14; for Tumor Growth Inhibition D17 / Tumor volume D17: day 17; for Tumor Growth Inhibition D21 / Tumor volume D21: day 21; for Tumor volume D0 / Tumor volume D3 / Tumor volume D7 / Tumor volume D10 / Tumor volume D14 / Tumor volume D17 / Tumor volume D21 / Tumor weight: group mean; for Tumor volume D0: day 0; for Tumor weight: end of the study (Day 21)
Protocol: The in vivo potency of anti-tumor activities of Comp. 4, Comp. 37, Comp. 5, Comp. 28, Comp. 163, and Comp. 164 have been evaluated on the growth of HCC1806 s.c. xenografts in BALB/c nude mice.
The testing compounds Comp. 4, Comp. 37, Comp. 5, Comp. 28, Comp. 163, and Comp. 164 were prepared according the synthetic routes set forth in the above Examples. The testing formulations for compounds Comp. 4, Comp. 37, Comp. 5, Comp. 28, Comp. 163, and Comp. 164 were prepared as liquid formulation in a liquid vehicle containing 0.1% Tween-80 (purchased form Sinopharm Chemical Reagent Co., Ltd, Lot No. 20190322), 0.5% methyl cellulose (purchased from SIGMA, Lot No. SLBR8963V) in water.
A total of 42+8 female BALB/c nude mice were ordered from Shanghai LC Laboratory Animal Co. Ltd. The animals were specific pathogen free and approximately 4-5 weeks old upon arrival at PharmaLegacy Laboratories.
HCC1806 cell cultures were maintained at 37° C. under 5% CO2 in RPMI-1640 medium supplemented with 10% FBS and were subsequently cultured within 10 passages before inoculated into the mice.
as §1, §2
Tumors were collected at the end of the study (Day 21), the mice were sacrificed. Tumor was collected, weighed, photographed.
as §3

[3] = Pharmacokinetic profiling in mouse (i.v. and i.g.); type: in vivo, male ICR mice; settings: male, ICR, plasma; for Vd: read-out: Vdss; for bioavailability: calculated by using the AUC0-t, read-out: F (bioavailability)
Protocol: (1). Kolliphor® HS 15 (formerly regarded as Solutol® HS 15) a non-ionic surfactant, was used as a solubilizer in preparing the parenteral formulations; (2). DMA (N,N-dimethylacetamide); (3). saline; and (4). Tween 80; (5) acetyl nitrile. […] To a glass flask was added 6.0 μmol of the test compound, and 0.265 mL of DMA. The glass flask was vortexed to allow the complete dissolution of the solid. Then 0.265 mL of 30% Solution HS 15 was added to the test compound solution in DMA and was vortexed to allow homogeneous mixing. Lastly, 2.12 mL of saline was added to the mixture in the glass flask. The flask was vortexed to allow homogeneous mixing. […] A clear liquid test sample iv formulation was obtained. An aliquot of 100 μL of the test sample iv formulation was placed into a 1.5 mL EP tube and was kept at 2-8° C. for future sample concentration quantification by HPLC. […] To a glass flask was added 27 μmol of the test compound and 4.047 mL of 0.5% MC with 01. % Tween 80. The flask and the mixture was vortexed followed by sonication for about 15 minutes to allow even distribution of the solids. A white suspension of the text sample was obtained. […] Ltd. Before receiving the test compound formulations, the animals were on fasting overnight. On the day of dosing, the animals were fed at 4h after the dosing. During the tests, the animals were free to drink water. Each test compound was tested in duplicate with different routes of administration: in one set of tests, mice received test compounds by iv injection route, and in the other set of tests, mice received the test compounds by IG administration. The schedules of the test for each mouse are illustrated in Table 5 below. [table] 100 μL blood sample was taken from the veins in animal eyelid. The whole blood sample was placed in anticoagulation tubes treated with EDTA-K2. The whole blood sample was centrifuged at 1500 g for 10 min. The plasma at the upper level was collected into test tubes. An aliquot of 10 μL of sample was added with 100 μL ACN which contains of Verapamil, 5 ng/mL, Glibenclamide, 50 ng/mL, Tolbutamide, 200 ng/mL and Diclofenac, 200 ng mL-1 for protein precipitation. The mixture was vortexed for 1 min, then centrifuged at 13000 rpm for 8 min. Then 70 μL of supernatant was added with 70 μL water, then vortexed for 10 min. An aliquot of 5 μL of the mixture was injected into the LC-MS/MS system. LC-MS/MS (API 4000: LC-MS-MS-001), column: […] Sample injection volume is 5 μL. Flow rate is 0.8 mL/min. The detection wavelength is set at 254 nm.

Row | Structure (SMILES) | Body weight D0 [1] | Body weight D3 [1] | Body weight D7 [1] | Body weight D10 [1] | Body weight D14 [1] | Body weight D17 [1] | Body weight D21 [1] | Tumor Growth Inhibition D3 [2] | Tumor Growth Inhibition D7 [2] | Tumor Growth Inhibition D10 [2] | Tumor Growth Inhibition D14 [2] | Tumor Growth Inhibition D17 [2] | Tumor Growth Inhibition D21 [2] | Tumor volume D0 [2] | Tumor volume D3 [2] | Tumor volume D7 [2] | Tumor volume D10 [2] | Tumor volume D14 [2] | Tumor volume D17 [2] | Tumor volume D21 [2] | other results
1 | [2H]C([2H])([2H])c1cc2cnc(NC3CCN(S(C)(=O)=O)CC3)nc2n([C@@H]2CCC[C@@]2(C)O)c1=O [Comp. 37, (−)-8-((1R,2R)-2-hydroxy-2-methylcyclopentyl)-6-(methyl-d3)-2-((1-(methylsulfonyl)piperidin-4-yl)amino)pyrido[2,3-d]pyrimidin-7(8H)-one] | 18.25 g | 18.23 g | 18.10 g | 18.01 g | 18.80 g | 18.60 g | 18.17 g | 42.52% | 49.20% | 46.10% | 44.43% | 48.73% | 46.8% | 109.89 mm^3 | 216.01 mm^3 | 370.15 mm^3 | 596.52 mm^3 | 858.29 mm^3 | 1037.86 mm^3 | 1269.08 mm^3 | tumor volume compared with G1 vehicle on each day [2]: significant smaller tumor volume from day 3 to day 21; tumor weight at the end of the study, in words [2]: lighter tumor but no statistic significance; Tumor weight [2]: 2.10 g; AUC(0-t) ([3]; iv, i.v. 5 mg/kg): 1290 ng·h/mL; C0 ([3]; iv, i.v. 5 mg/kg): 7420 ng/mL; clearance ([3]; iv, i.v. 5 mg/kg): 64.7 mL/min/kg; half-life ([3]; iv, i.v. 5 mg/kg): 19.8 min; Vd ([3]; iv, i.v. 5 mg/kg): 0.703 L/kg; AUC(0-t) ([3]; po, i.g. 30 mg/kg): 605 ng·h/mL; Cmax ([3]; po, i.g. 30 mg/kg): 522 ng/mL; Tmax ([3]; po, i.g. 30 mg/kg): 15 min; half-life ([3]; po, i.g. 30 mg/kg): 103 min; bioavailability ([3]; po, i.g. 30 mg/kg): 7.8%
2 | C[C@@]1(O)CCC[C@H]1n1c(=O)c(C(F)F)cc2cnc(NC3CCN(S(C)(=O)=O)CC3)nc21 [Comp. 5, (−)-6-(difluoromethyl)-8-((1R,2R)-2-hydroxy-2-methylcyclopentyl)-2-((1-(methylsulfonyl)piperidin-4-yl)amino)pyrido[2,3-d]pyrimidin-7(8H)-one, reference compound] | 18.43 g | 18.07 g | 18.12 g | 17.82 g | 18.25 g | 18.48 g | 17.80 g | 37.46% | 42.30% | 39.66% | 42.80% | 43.13% | 44.1% | 109.77 mm^3 | 225.24 mm^3 | 405.37 mm^3 | 654.51 mm^3 | 880.11 mm^3 | 1139.14 mm^3 | 1327.79 mm^3 | tumor volume compared with G1 vehicle on each day [2]: significant smaller tumor volume from day 7 to day 21; tumor weight at the end of the study, in words [2]: lighter tumor but no statistic significance; Tumor weight [2]: 2.22 g; AUC(0-t) ([3]; iv, i.v. 5 mg/kg): 1360 ng·h/mL; C0 ([3]; iv, i.v. 5 mg/kg): 5020 ng/mL; clearance ([3]; iv, i.v. 5 mg/kg): 61.2 mL/min/kg; half-life ([3]; iv, i.v. 5 mg/kg): 22 min; Vd ([3]; iv, i.v. 5 mg/kg): 1 L/kg; AUC(0-t) ([3]; po, i.g. 30 mg/kg): 1190 ng·h/mL; Cmax ([3]; po, i.g. 30 mg/kg): 1040 ng/mL; Tmax ([3]; po, i.g. 30 mg/kg): 15 min; half-life ([3]; po, i.g. 30 mg/kg): 166 min; bioavailability ([3]; po, i.g. 30 mg/kg): 14.6%
3 | [2H]C(F)(F)c1cc2cnc(NC3CCN(S(C)(=O)=O)CC3)nc2n([C@@H]2CCC[C@@]2(C)O)c1=O [Comp. 28, (−)-6-(difluoromethyl-d)-8-((1R,2R)-2-hydroxy-2-methylcyclopentyl)-2-((1-(methylsulfonyl)piperidin-4-yl)amino)pyrido[2,3-d]pyrimidin-7(8H)-one] | 17.93 g | 17.81 g | 17.78 g | 17.66 g | 17.75 g | 17.84 g | 16.80 g | 15.44% | 11.52% | 15.19% | 12.60% | 26.69% | 34.01% | 111.13 mm^3 | 267.25 mm^3 | 564.40 mm^3 | 876.82 mm^3 | 1288.11 mm^3 | 1438.12 mm^3 | 1549.07 mm^3 | body weight compared with G1 vehicle [1]: significant lower on day 17; Tumor weight [2]: 2.84 g
4 | Cc1cc2cnc(NC3CCN(S(C)(=O)=O)CC3)nc2n([C@@H]2CCC[C@@]2(C)O)c1=O [Comp. 4, (−)-8-(2-hydroxy-2-methylcyclopentyl)-6-methyl-2-((1-(methylsulfonyl)piperidin-4-yl)amino)pyrido[2,3-d]pyrimidin-7(8H)-one, reference compound] | 18.11 g | 17.90 g | 18.56 g | 19.59 g | 19.85 g | 20.49 g | 20.80 g | 30.25% | 23.11% | −1.66% | 6.35% | 9.13% | 6.55% | 112.95 mm^3 | 241.73 mm^3 | 506.86 mm^3 | 1030.80 mm^3 | 1374.19 mm^3 | 1757.63 mm^3 | 2149.25 mm^3 | body weight compared with G1 vehicle [1]: significant higher on day 21; Tumor weight [2]: 3.63 g; AUC(0-t) ([3]; iv, i.v. 5 mg/kg): 967 ng·h/mL; C0 ([3]; iv, i.v. 5 mg/kg): 8300 ng/mL; clearance ([3]; iv, i.v. 5 mg/kg): 86.1 mL/min/kg; half-life ([3]; iv, i.v. 5 mg/kg): 11.7 min; Vd ([3]; iv, i.v. 5 mg/kg): 0.611 L/kg; AUC(0-t) ([3]; po, i.g. 30 mg/kg): 245 ng·h/mL; Cmax ([3]; po, i.g. 30 mg/kg): 211 ng/mL; Tmax ([3]; po, i.g. 30 mg/kg): 15 min; half-life ([3]; po, i.g. 30 mg/kg): 134 min; bioavailability ([3]; po, i.g. 30 mg/kg): 4.2%
